Literature values as cited in patent US20070281011A1, “Nanoparticulate posaconazole formulations” (Elan Pharma International Ltd., priority 2006, published 2007).

Columns and labels:
[1] = meal containing fat calories; regardless of formulation (tablet versus suspension)
[2] = test system: cytochrome P450 14a-demethylase (P45014DM); conditions: particularly in Aspergillus

Structure (SMILES): CC[C@@H]([C@H](C)O)n1ncn(-c2ccc(N3CCN(c4ccc(OC[C@@H]5CO[C@@](Cn6cncn6)(c6ccc(F)cc6F)C5)cc4)CC3)cc2)c1=O [Posaconazole]
- increase of relative oral bioavailability [1]: approximately 400%
- inhibition of sterol C14 demethylation compared to itraconazole [2]: significantly more potent inhibitor
- aqueous solubility: < 1 µg/mL
